Several values for one entry are separate records, joined by “and”; a condition that tells them apart may be missing. Equal values may be shown once.
Assays:
[1] = Plasma free fraction (fp), ultrafiltration method; type: in vitro ADME, rhesus monkeys (Macaca mulatta); settings: measured in triplicate per scan, mean ± SD
Procedure: The plasma free fraction (fp) for each scan was measured in triplicate using the ultrafiltration method and calculated as the ratio of radioactivity in the filtrate to that in the plasma ([24]).

GAT-1 [2] = molecular target: T1, GAT-1 (Macaca mulatta, UniProt H9ELS5); test: PET brain imaging with kinetic modeling (1TCM), baseline and tiagabine blocking scans; type: in vivo, rhesus monkeys (Macaca mulatta); settings: for Median VT across ROIs: 1TCM
T1 construct: from tissue; host or cells: brain of living rhesus monkeys (in vivo PET)
Procedure: Twenty scans were acquired from 4 rhesus monkeys (Macaca mulatta). Each monkey underwent baseline and blocking scans with ^18F-GATT-31, ^18F-GATT-34, ^18F-GATT-39, or ^18F-GATT-44 (Fig. 1) on a Focus-220 small-animal PET scanner (Siemens Healthineers).
(§1) Before each scan, each monkey was sedated with alfaxalone (2 mg/kg), midazolam (0.3 mg/kg), and dexmedetomidine (0.01 mg/kg), and anesthesia was maintained with 1.5%–2.5% isoflurane. Heart rate, blood pressure, respiration rate, and oxygen saturation were monitored continuously. An intravenous line was placed in the saphenous or cephalic vein for delivery of the radiotracer, as well as tiagabine during blocking studies (0.5 mg/kg administered 19 ± 4 min before radiotracer injections). A catheter was placed in the radial or tibial artery for blood sampling.
Before injection, a transmission scan was acquired. Starting with injection of the radiotracer, PET emission data were acquired in list-mode format and binned into 45 frames (6 × 30 s, 3 × 1 min, 2 × 2 min, and 34 × 5 min).
For region-of-interest (ROI) definition, each PET image was registered to an in-house rhesus monkey anatomical MRI template using the concatenation of a rigid-body transformation between the summed PET image (0–10 min) and corresponding monkey’s MRI (using the FMRIB Linear Image Registration Tool) and a nonlinear transformation matrix estimated between the monkey’s MRI and the MRI template (BioImage Suite software version 3.01). Regional time–activity curves were extracted for the following 11 ROIs: brain stem, caudate, cerebellum, cingulate cortex, frontal cortex, hippocampus, insula, occipital cortex, putamen, temporal cortex, and thalamus.
For each baseline and blocking scan, kinetic analysis was performed using a 1-tissue compartment model (1TCM), a reversible 2-tissue compartment model (2TCM; k4 > 0), and an irreversible 2-tissue compartment model (2TiCM; k4 = 0), including a blood volume fraction (Vb) term and a time-delay term. Vb was estimated for each time–activity curve using the whole-blood curve fitted with a sum of exponentials. The time delay (Δt) between the input function and the brain was estimated by fitting the first 10 min of the whole-brain time–activity curve to a 1TCM with 3 parameters: K1, Vb, and Δt (k2 was set to 0 because of the negligible radiotracer washout during the first 10 min). This estimated time delay value was then used in the time–activity curve fits. The primary parameters of interest were the influx constant (K1, expressed in microliters per minute per cubic centimeter, since values were low), the volume of distribution (VT, expressed in milliliters per cubic centimeter), and the net influx constant (Ki, expressed in milliliters per minute per cubic centimeter) for 2TiCM.

[3] = Metabolite analysis of arterial plasma (unmetabolized parent fraction), column-switching HPLC; type: in vivo, rhesus monkeys (Macaca mulatta); settings: mean ± SD
Procedure: Arterial blood samples were collected for each scan to measure the input function. Metabolite analysis was performed using an automatic column-switching high-performance liquid chromatography system ([22]) for 7 arterial blood samples collected at 5, 15, 30, 60, 90, 120, and 180 min. The radiometabolite-corrected arterial plasma input function was obtained by calculating the product of the fitted total plasma (fitted with a sum of exponentials) and unmetabolized parent fraction curves (using an integrated γ-function ([23])).

[4] = test system: GABAA receptor α5 subtype; parameters: method as in PMID 30102960, PMID 32578977; settings: cited from earlier work
P-glycoprotein (PgP) = P-glycoprotein (PgP) (Homo sapiens, UniProt P08183); test: Efflux by P-glycoprotein; type: in vitro ADME
GAT-1 [5] = molecular target: T1, GAT-1; test: Occupancy plots from baseline and tiagabine blocking PET scans (occupancy, VND, BPND); type: in vivo, rhesus monkeys (Macaca mulatta); settings: for VND: occupancy plot; for Occupancy: tiagabine 0.5 mg/kg occupancy measured with this radiotracer
Procedure: as §1
Occupancy plots ([26]) were used to estimate tiagabine occupancy and the nondisplaceable volume of distribution (VND). This VND value was used to compute the nondisplaceable binding potential (BPND = VT/VND − 1). To compare the performance between 2 radiotracers, a Guo plot ([27]) was created, using baseline VT values, to assess the relative affinity and BPND values of each radiotracer.

GAT-1 [6] = test system: GAT-1; parameters: method as in PMID 10642842; settings: in vitro, human brain postmortem; cited from earlier work
GABA = settings: vervet brain in vivo; cited from earlier work
[7] = Plasma tiagabine concentration by mass spectrometry; type: in vivo, rhesus monkeys (Macaca mulatta); settings: 0.5 mg/kg tiagabine i.v.; 30–190 min after tiagabine injection
Procedure: For 8 of the 10 blocking scans, venous blood samples were acquired at 30, 60, 90, 120, 160, and 190 min after injection of tiagabine, in addition to 1 control sample before tiagabine injection, to measure its concentration using mass spectrometry (described in the supplemental materials).

[8] = parameters: method as in PMID 9530548; settings: humans, 24-mg single oral dose; cited from earlier work
[9] = after blocking with tiagabine 0.5 mg/kg

T1 sequence (H9ELS5 1-599): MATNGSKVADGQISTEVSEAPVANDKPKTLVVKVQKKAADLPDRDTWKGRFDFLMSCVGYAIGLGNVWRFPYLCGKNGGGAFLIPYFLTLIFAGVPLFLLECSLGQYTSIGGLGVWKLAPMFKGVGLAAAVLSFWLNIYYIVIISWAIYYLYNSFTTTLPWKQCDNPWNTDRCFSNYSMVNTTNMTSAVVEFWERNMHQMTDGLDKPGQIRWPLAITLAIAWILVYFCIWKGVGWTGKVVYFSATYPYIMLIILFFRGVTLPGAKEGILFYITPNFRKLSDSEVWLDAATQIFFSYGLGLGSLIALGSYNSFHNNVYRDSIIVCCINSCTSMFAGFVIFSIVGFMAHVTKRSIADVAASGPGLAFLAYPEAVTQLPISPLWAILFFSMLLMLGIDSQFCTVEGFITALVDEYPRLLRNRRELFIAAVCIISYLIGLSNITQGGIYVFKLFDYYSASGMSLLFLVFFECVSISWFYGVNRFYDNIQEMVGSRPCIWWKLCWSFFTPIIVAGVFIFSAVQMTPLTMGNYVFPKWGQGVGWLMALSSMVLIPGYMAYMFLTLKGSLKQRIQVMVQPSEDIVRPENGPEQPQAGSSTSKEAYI
Sequence of P-glycoprotein (PgP) (P08183 whole entry): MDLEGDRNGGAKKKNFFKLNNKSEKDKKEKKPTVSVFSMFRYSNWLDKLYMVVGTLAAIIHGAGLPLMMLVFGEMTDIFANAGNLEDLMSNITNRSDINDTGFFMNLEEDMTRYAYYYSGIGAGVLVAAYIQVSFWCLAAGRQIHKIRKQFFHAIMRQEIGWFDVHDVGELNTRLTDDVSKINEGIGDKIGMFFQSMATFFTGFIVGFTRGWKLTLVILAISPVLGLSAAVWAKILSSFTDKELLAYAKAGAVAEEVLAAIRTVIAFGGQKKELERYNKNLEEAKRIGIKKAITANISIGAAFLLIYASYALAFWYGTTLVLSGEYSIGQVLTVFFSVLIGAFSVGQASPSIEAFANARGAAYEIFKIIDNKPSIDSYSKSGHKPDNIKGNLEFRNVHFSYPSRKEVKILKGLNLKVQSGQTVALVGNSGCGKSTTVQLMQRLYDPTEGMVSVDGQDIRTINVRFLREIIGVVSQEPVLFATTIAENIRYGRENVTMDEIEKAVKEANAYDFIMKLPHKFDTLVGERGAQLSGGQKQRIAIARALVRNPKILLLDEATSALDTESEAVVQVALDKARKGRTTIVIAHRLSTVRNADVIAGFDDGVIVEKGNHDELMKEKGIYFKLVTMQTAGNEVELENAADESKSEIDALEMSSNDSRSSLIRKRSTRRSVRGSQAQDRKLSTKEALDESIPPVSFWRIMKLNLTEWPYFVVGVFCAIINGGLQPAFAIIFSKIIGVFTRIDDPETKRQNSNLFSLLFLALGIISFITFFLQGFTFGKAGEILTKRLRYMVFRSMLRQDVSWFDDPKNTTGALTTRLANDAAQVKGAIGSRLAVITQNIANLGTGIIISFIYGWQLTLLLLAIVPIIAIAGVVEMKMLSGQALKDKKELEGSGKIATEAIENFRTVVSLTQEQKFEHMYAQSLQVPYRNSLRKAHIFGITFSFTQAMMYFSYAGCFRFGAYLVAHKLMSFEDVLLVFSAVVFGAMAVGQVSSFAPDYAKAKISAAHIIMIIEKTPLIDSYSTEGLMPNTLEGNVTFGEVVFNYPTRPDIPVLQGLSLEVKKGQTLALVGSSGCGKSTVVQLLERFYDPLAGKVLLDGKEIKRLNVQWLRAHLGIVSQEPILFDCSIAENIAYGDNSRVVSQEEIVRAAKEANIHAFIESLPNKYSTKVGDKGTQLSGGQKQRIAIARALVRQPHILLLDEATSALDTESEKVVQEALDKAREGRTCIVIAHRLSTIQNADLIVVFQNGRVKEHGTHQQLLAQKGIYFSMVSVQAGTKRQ

With Cc1ccccc1C(=COCCN1CCCC(C(=O)O)C1)c1ccc([18F])cc1 (stereo not shown) [^18F-GATT-34] the Free fraction [1] was 10.8 ± 0.4%, the “Median VT across ROIs” value (GAT-1 [2]; [9]) was 1.3 mL/cm^3 and the “Median VT across ROIs” value (GAT-1 [2]; baseline) was 1.5 mL/cm^3. The “Blocking effect of tiagabine on VT” value (GAT-1 [2]; tiagabine 0.5 mg/kg) was “small”, the Parent compound ([3]; 30 min) was 91 ± 2% and the Parent compound ([3]; 90 min) was 83 ± 2%.

For CCOC(=O)c1ncn2c1CN([11CH3])C(=O)c1cc(N=[N+]=[N-])ccc1-2 [[^11C]Ro15-4513], the “Affinity” value [4] is listed as “high affinity”.

With O=C(O)C1CCCN(CCC=C(c2ccccc2[18F])c2ccccc2Cl)C1 (stereo not shown) [^18F-GATT-39] the Free fraction [1] was 10.5 ± 1.0%, the “K1 values” (GAT-1 [2]; 1TCM influx constant) was “especially low” and the “Median VT across ROIs” value (GAT-1 [2]; [9]) was 0.9 mL/cm^3. The “Median VT across ROIs” value (GAT-1 [2]; baseline) was 1.6 mL/cm^3, the Parent compound ([3]; 30 min) was 95 ± 4% and the Parent compound ([3]; 90 min) was 85 ± 9%.

With Cc1ccccc1C(=COCCN1CCCC(C(=O)O)C1)c1ccccc1[18F] (stereo not shown) [^18F-GATT-31] the Free fraction [1] was 12.4 ± 1.8%, the “Efflux by PgP (category)” value (P-glycoprotein (PgP)) was “low efflux by PgP” and the VND (GAT-1 [5]; monkey 1) was 0.31 mL/cm^3. The VND (GAT-1 [5]; monkey 2) was −0.61 mL/cm^3 and −0.61 ^* mL/cm^3, the VND (GAT-1 [5]; monkey 3) was 1.02 mL/cm^3 and the Occupancy (GAT-1 [5]; monkey 1) was 69%. The Occupancy (GAT-1 [5]; monkey 2) was 22%, the Occupancy (GAT-1 [5]; monkey 3) was 70% and the “Median VT across ROIs” value (GAT-1 [2]; [9]) was 1.5 mL/cm^3. For the same compound, the “Median VT across ROIs” value (GAT-1 [2]; baseline) was 2.8 mL/cm^3, the Parent compound ([3]; 30 min) was 87 ± 3% and the Parent compound ([3]; 90 min) was 76 ± 6%. For the same compound, the Parent compound ([3]; 180 min) was 63% and 63 ± 11%.

For Cc1ccsc1C(=CCCN1CCC[C@@H](C(=O)O)C1)c1sccc1C [tiagabine, (R)-1-[4,4-bis(3-methyl-2-thienyl)-3-butenyl]-3-piperidinecarboxylic acid], the “Selectivity for GAT-1” value (GAT-1 [6]) is given as “excellent selectivity for GAT-1”, the “Effect on GABA in brain” value (GABA) is given as “increase GABA” and the Average plasma concentration [7] is given as 385 ± 70 µg/L. For the same compound, the Elimination half-life [8] was 7.3 h and the “Plasma concentration peak value” [8] was 552 ng/mL.
